Where two headings read alike, the source gives them in different places.

From patent US12167998B2, “Spiro-lactam NMDA receptor modulators and uses thereof” (Tenacia Biotechnology (Hong Kong) Co., Limited, priority 2013, dated 2024) come the findings set out here.

Experiment [1] addresses NMDA receptor glycine site, rat cortical membranes (Rattus norvegicus (Rat), UniProt P35439). The experiment is described as follows: [3H] MK-801 binding assay (potentiation of [3H]MK-801 binding). On the procedure: Assays were conducted as described in Moskal et al. (Moskal, J. R., Kuo, A. G., Weiss, C., Wood, P. L., O'Connor Hanson, A., Kelso, S., Harris, R. B., Disterhoft, J. F., 2005. GLYX-13: a monoclonal antibody-derived peptide that acts as an N-methyl-D-aspartate receptor modulator. Neuropharmacology. 49, 1077-87) The potentiation of [^3H]MK-801 binding (5 nM; 22.5 Ci/mmol) to well washed rat cortical membranes (200 μg) was measured under non-equilibrium conditions (15 min @ 25° C.) in the presence of increasing concentrations of test compounds and […]. Zero levels were determined in the absence of any glycine ligand and in the presence of 30 μM 5.7 DCKA. Maximal stimulation was measured in the presence of 1 mM glycine, and 500 μM glutamate was present in all samples. The facilitation of [^3H]MK-801 binding by tests compounds was calculated by using a 3 parameter log agonist vs. response equation (Graph pad Prism, USA) and potency (EC50, expressed in pM) and maximal activity (% maximal stimulation) were calculated for the test compound.

Experiment [2] in a line: Porsolt test, floating time inhibition. It is filed as in vivo. As to conditions: 1 hour post dose.
Experiment [3] relates to hippocampal slices, Schaffer collateral-CA1. Briefly: Long term potentiation in hippocampal slices. As to conditions: for LTP: LTP Augmentation (%): Table 4. It is filed as cell-based, rat. On the procedure: Assays were conducted as described in Zhang et al. (Zhang, X. L., Sullivan, J. A., Moskal, J. R., Stanton, P. K., 2008. A NMDA receptor glycine site partial agonist, GLYX-13, simultaneously enhances LTP and reduces LTD at Schaffer collateral-CA1 synapses in hippocampus. Neuropharmacology. 55, 1238-50) Sprague-Dawley rats (12-18 days old; Taconic Farms) were deeply anesthetized with isoflurane and decapitated. Rat brains were removed rapidly, submerged in ice-cold artificial cerebrospinal fluid (ACSF, 2-4° C.), which contained (in mM): 124 NaCl, 4 KCl, 2 MgSO4, 2 CaCl2, 1.25 NaH2PO4, 26 NaHCO3, 10 glucose; at pH 7.4, gassed continuously with 95% O2/5% CO2). The rat brains were hemisected, the frontal lobes cut off, and individual hemispheres glued using cyanoacrylate adhesive onto a stage immersed in ice-cold ACSF gassed continuously with 95% O2/5% CO2 during slicing. Coronal slices (400 μm thick) were cut using a Vibratome (Leica VT1200S), and transferred to an interface holding chamber for incubation at room temperature for a minimum of one hour before transferring to a Haas-style interface recording chamber continuously perfused at 3 ml/min with oxygenated ACSF at 32±0.5° C. Low resistance recording electrodes were made from thin-walled borosilicate glass (1-2 MΩ after filling with ACSF) and inserted into the apical dendritic region of the Schaffer collateral termination field in stratum radiatum of field CA1 region to record field excitatory postsynaptic potentials (fEPSPs). A bipolar stainless steel stimulating electrode (FHC Co.) was placed on Schaffer collateral-commissural fibers in CA3 stratum radiatum, and constant current stimulus intensity adjusted to evoke approximately half-maximal fEPSPs once each 30 s ([…]; 100 μs duration). fEPSP slope was measured before and after induction of LTP by linear interpolation from 20 to 80% of maximum negative deflection, and slopes confirmed to be stable to within ±10% for at least 15 min before commencing an experiment. […] LTP was induced by stimulation of Schaffer collateral axons with four high frequency theta burst stimulus trains of 10×100 Hz/5 pulse bursts each, applied at an inter-burst interval of 200 ms. Each train was 2 seconds in duration, and trains were applied 15 seconds apart. The signals were recorded using a Multiclamp 700B amplifier and digitized with a Digidata 1322 (Axon Instruments, USA). Data were analyzed using pClamp software (version 9, Axon Instruments) on an IBM-compatible personal computer.

Setting [4] is: Table 4, rat cortex, read-out: MK-801 Glycine Site Binding Assay: Rat Cortex EC50.
The mark [5] stands for this setting: Table 3, read-out: [3H] MK-801 binding assay: EC50.

Consider `C[C@@H](O)[C@@H](C(N)=O)N1CC2(CCCN2C(=O)OC(C)(C)C)C1=O` (stereo partly drawn) [Compound 2S-FNL-2, tert-butyl 2-((2S,3R)-1-amino-3-hydroxy-1-oxobutan-2-yl)-1-oxo-2,5-diazaspiro[3,4] octane-5-carboxylate], for which the EC50 in experiment [1] (setting [4]) is 20 nM.
On to `C[C@@H](O)[C@@H](C(N)=O)N1CC2(CCCN2)C1=O` (stereo partly drawn) [Compound 2S-FNL-3, (2S,3R)-3-hydroxy-2-(1-oxo-2,5-diazaspiro[3.4]octan-2-yl) butanamide], for which, in experiment [2] (3 mg/kg IV), the “Unified Activity Data: Porsolt Floating Time Inhibition (Percent)” value was determined as 80%. For the same molecule, in experiment [1] (setting [5]), the EC50 amounted to 54.3 nM. In addition, the “Unified Activity Data: LTP Augmentation (Percent)” value in experiment [3] (LTP concentration 1 uM) is listed as 130%.
In the case of `CC(N)C(C(N)=O)N1CC2(CCCN2)C1=O` (stereo not drawn) [Compound 2S-FNL-7, 3-amino-2-(1-oxo-2,5-diazaspiro[3.4]octan-2-yl)butanamide], the EC50 in experiment [1] (setting [5]) came to 11 nM.
As to `C[C@@H](O)[C@@H](C(=O)NCc1ccccc1)N1CC2(CCCN2C(=O)OC(C)(C)C)C1=O` (stereo partly drawn) [Compound 2S-FNL-10, tert-butyl 2-((2S,3R)-1-(benzylamino)-3-hydroxy-1-oxobutan-2-yl)-1-oxo-2,5-diazaspiro[3.4] octane-5-carboxylate], the EC50 in experiment [1] (setting [4]) came out at 0.00119 nM. Besides, the “LTP: LTP Augmentation (%)” value in experiment [3] (LTP concentration 1 uM) came to 90%.
As for `C[C@@H](O)[C@@H](C(=O)NCc1ncno1)N1CC2(CCCN2C(=O)OC(C)(C)C)C1=O` (stereo partly drawn) [Compound 2S-FNL-14, tert-butyl 2-((2S,3R)-1-(((1,2,4-oxadiazol-5-yl)methyl)amino)-3-hydroxy-1-oxobutan-2-yl)-1-oxo-2,5-diazaspiro[3.4] octane-5-carboxylate], the EC50 in experiment [1] (setting [4]) was found to be 0.0613 nM. Moreover, the “LTP: LTP Augmentation (%)” value in experiment [3] (LTP concentration 1 uM) was 120%.
On to `NC(=O)[C@H](CO)N1CC2(CCCN2)C1=O` (stereo partly drawn) [Compound 2S-FNL-21, (2S)-3-hydroxy-2-(1-oxo-2,5-diazaspiro[3.4]octan-2-yl)propanamide], for which the “Unified Activity Data: LTP Augmentation (Percent)” value in experiment [3] (LTP concentration 0.1 uM) came to 80%.
As to `CC(=O)O[C@H](C)[C@@H](C(=O)N1CCCC1)N1CC2(CCCN2)C1=O` (stereo partly drawn) [Compound 2S-FNL-27, (2R,3S)-4-oxo-3-(1-oxo-2,5-diazaspiro[3.4]octan-2-yl)-4-(pyrrolidin-1-yl) butan-2-yl acetate], the EC50 in experiment [1] (setting [5]) was 0.00349 nM.
Take `CC1CCC2(CN([C@H](C(N)=O)[C@@H](C)O)C2=O)N1C(=O)OC(C)(C)C` (stereo partly drawn) [Compound 2S-FNL-33, tert-butyl 2-((2S,3R)-1-amino-3-hydroxy-1-oxobutan-2-yl)-6-methyl-1-oxo-2,5-diazaspiro[3.4] octane-5-carboxylate]: the EC50 in experiment [1] (setting [4]) is 18.9 nM. Also, in experiment [3] (LTP concentration 1 uM), the “LTP: LTP Augmentation (%)” value was found to be 140%.
In the case of `CC1CCC2(CN([C@H](C(N)=O)[C@@H](C)O)C2=O)N1` (stereo partly drawn) [Compound 2S-FNL-34, (2S,3R)-3-hydroxy-2-(6-methyl-1-oxo-2,5-diazaspiro[3.4]octan-2-yl) butanamide], the “Unified Activity Data: Porsolt Floating Time Inhibition (Percent)” value in experiment [2] (1 mg/kg PO) came to 73%. Also, the “Unified Activity Data: LTP Augmentation (Percent)” value in experiment [3] (LTP concentration 0.1 uM) worked out at 100%.
For the molecule `CC1CCC2(N1)C(=O)N([C@H](C(=O)N1CCCC1)[C@@H](C)O)C2C` (stereo partly drawn) [Compound 2S-FNL-38, 2-((2S,3R)-3-hydroxy-1-oxo-1-(pyrrolidin-1-yl)butan-2-yl)-3,6-dimethyl-2,5-diazaspiro[3.4]octan-1-one], the EC50 in experiment [1] (setting [4]) came to 3.31 nM.
As a reminder, the Emax is the size of the effect at its maximum, as opposed to the concentration needed. For orientation: pEC50 means the EC50 on a negative log10 scale, so that one unit is a factor of ten. Consider `C[C@@H](O)[C@@H](C(N)=O)N1CC2(CCCN2)C1=O` (stereo partly drawn) [Compound X, (2S,3R)-3-hydroxy-2-(1-oxo-2,5-diazaspiro[3,4]octan-2-yl)butanamide], for which, in experiment [1] (maximal stimulation measured with 1 mM glycine), the Emax was determined as 38%. Besides, in experiment [1] (rat cortical membranes, 50 μM glutamate), the pEC50 turned out to be 7.4. For the same molecule, the EC50 in experiment [1] (rat cortical membranes, 50 μM glutamate, read-out: pEC50 (converted)) is 39.8 nM. For the same molecule, the “long-term potentiation after high frequency stimulation of Schaffer collateral-evoked NMDA e.p.s.c.s in CA1 pyramidal neurons” value in experiment [3] (tested at 1 μM, FIG. 2) is “increased long-term potentiation”.
